Reference: patent US6521670B1, “Insect control method and composition” (BioAdvantage, Inc., priority 2000, dated 2003)

System: flies, bees, wasps, and other winged insects
Test: vaporized 1,4-DMN treatment of a closed potato storage facility
Assay type: in vivo
Protocol: The concentration of vapor of 1,4-DMN in the atmosphere of the storage facility was rather low. […] In the experiment, 500 milliliters and 188 milliliters of 1,4-DMN were vaporized and used. Both concentrations were effective. The facility was in a closed state for about 48 hours.
The ventilation system of the storage facility had been shut off so that there was no fresh air entering the building and the building was not being evacuated during the 1,4-DMN vapor treatment. The effect of the 1,4-DMN on insects within the storage facility was fairly immediate with substantially all the insects being killed within about 24 hours. In regions or facilities with dangerous insects, or where there is a large concentration of less-dangerous insects, such as bees, wasps and the like, which would create risks to workers, a closed facility may be treated to make it safe. Dangerous insects such as spiders, scorpions and the like may also effectively be treated in this manner with 1,4-DMN.

## Cc1ccc(C)c2ccccc12 [1,4-DMN, 1,4-dimethylnaphthalene]
1,4-DMN vapor treatment, closed storage facility without ventilation
  time until substantially all the insects were killed: ≤ 24 h
188 milliliters of 1,4-DMN vaporized, head space about 9,000 cubic feet, closed about 48 hours
  insecticidal effectiveness of vapor treatment: effective
500 milliliters of 1,4-DMN vaporized, head space about 9,000 cubic feet, closed about 48 hours
  insecticidal effectiveness of vapor treatment: effective
vapor, closed facility of approximately 10,000 cubic feet, head space about 9,000 cubic feet, closed about 48 hours, ventilation shut off
  effect of vaporized 1,4-DMN on insects contained within a potato storage facility: killed or placed in a state of stupor
